Values quoted from earlier work in article PMC9516332 (Frontiers in Oncology, 2022).
Like-named read-outs stand apart in the source and are kept apart here.

Tests used:
[1] = biological target: panel of 255 wild-type kinases (Homo sapiens, UniProt P22607); details: kinase FGFR3, 1 µmol/L single concentration, cited from earlier work
[2] = biological target: panel of 255 wild-type kinases (Homo sapiens, UniProt Q16539); details: p38α, 1 µmol/L single concentration, cited from earlier work
[3] = biological target: panel of 255 wild-type kinases (Homo sapiens, UniProt O75116); details: kinase ROCK2, 1 µmol/L single concentration, cited from earlier work
[4] = biological target: panel of 255 wild-type kinases (Homo sapiens, UniProt P22612); details: kinase PKACγ, 1 µmol/L single concentration, cited from earlier work
[5] = biological target: panel of 255 wild-type kinases (Homo sapiens, UniProt Q13555); details: CaMK2γ kinase assay, 1 µmol/L single concentration, cited from earlier work
[6] = tested on: panel of 255 wild-type kinases; details: cited from earlier work
[7] = biological target: panel of 255 wild-type kinases (Homo sapiens, UniProt Q00534); details: CDK6/CycD3 kinase assay, 1 µmol/L single concentration, cited from earlier work
[8] = biological target: panel of 255 wild-type kinases (Homo sapiens, UniProt P11309); details: kinase PIM1, 1 µmol/L single concentration, cited from earlier work
[9] = biological target: panel of 255 wild-type kinases (Homo sapiens, UniProt P54646); details: AMPKα2/β1/γ1 kinase assay, 1 µmol/L single concentration, cited from earlier work
[10] = biological target: panel of 255 wild-type kinases (Homo sapiens, UniProt P04629); details: kinase TRKA, 1 µmol/L single concentration, cited from earlier work
[11] = biological target: panel of 255 wild-type kinases (Homo sapiens, UniProt O75676); details: MSK2, 1 µmol/L single concentration, cited from earlier work
[12] = biological target: panel of 255 wild-type kinases (Homo sapiens, UniProt P43405); details: kinase SYK, 1 µmol/L single concentration, cited from earlier work
[13] = biological target: panel of 255 wild-type kinases (Homo sapiens, UniProt P49841); details: kinase GSK3β, 1 µmol/L single concentration, cited from earlier work
[14] = biological target: panel of 255 wild-type kinases (Homo sapiens, UniProt Q13557); details: CaMK2δ kinase assay, 1 µmol/L single concentration, cited from earlier work
[15] = biological target: panel of 255 wild-type kinases (Homo sapiens, UniProt Q14289); details: kinase PYK2, 1 µmol/L single concentration, cited from earlier work
[16] = biological target: panel of 255 wild-type kinases (Homo sapiens, UniProt P19525); details: kinase PKR, 1 µmol/L single concentration, cited from earlier work
[17] = biological target: T1, panel of 255 wild-type kinases (Homo sapiens, UniProt Q08881); details: kinase ITK, 1 µmol/L single concentration, cited from earlier work
T1 sequence (Q08881 1-620): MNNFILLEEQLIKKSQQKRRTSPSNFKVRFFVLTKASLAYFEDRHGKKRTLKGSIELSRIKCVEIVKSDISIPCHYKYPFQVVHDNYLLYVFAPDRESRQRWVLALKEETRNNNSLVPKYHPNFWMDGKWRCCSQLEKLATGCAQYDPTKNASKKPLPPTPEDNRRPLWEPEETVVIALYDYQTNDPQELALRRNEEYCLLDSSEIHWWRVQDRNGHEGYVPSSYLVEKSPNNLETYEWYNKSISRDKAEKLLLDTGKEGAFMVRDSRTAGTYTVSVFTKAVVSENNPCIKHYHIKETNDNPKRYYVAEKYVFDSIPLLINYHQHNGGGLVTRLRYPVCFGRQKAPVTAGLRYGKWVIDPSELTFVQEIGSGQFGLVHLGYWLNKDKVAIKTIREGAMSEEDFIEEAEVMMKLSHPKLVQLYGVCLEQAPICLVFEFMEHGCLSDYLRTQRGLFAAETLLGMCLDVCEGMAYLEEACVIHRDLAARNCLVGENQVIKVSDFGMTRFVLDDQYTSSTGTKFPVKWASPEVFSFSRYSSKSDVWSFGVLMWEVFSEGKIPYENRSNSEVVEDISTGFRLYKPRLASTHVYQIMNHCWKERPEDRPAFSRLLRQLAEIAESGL

[18] = biological target: panel of 255 wild-type kinases (Homo sapiens, UniProt Q9UM73); details: ALK kinase assay; 1 µmol/L single concentration; ref DOI: 10.1158/1535-7163.MCT-18-0877; cited from earlier work
[19] = ref DOI: 10.1158/1535-7163.MCT-18-0877
[20] = ref DOI: 10.1371/journal.pone.0092146

## CCc1cc2c(cc1N1CCC(N3CCOCC3)CC1)C(C)(C)c1[nH]c3cc(C#N)ccc3c1C2=O [alectinib]
[1]; [19]
  %-inhibition at 1 µmol/L, FGFR3: 8%
[2]; [19]
  %-inhibition, p38α: -0.471%
[3]; [19]
  %-inhibition at 1 µmol/L, ROCK2: 4.54%
[4]; [19]
  %-inhibition at 1 µmol/L, PKACγ: 3%
[5]; [19]
  %-inhibition CaMK2γ: 6%
[6]; kinase FYN [isoform b], 1 µmol/L single concentration, ref DOI: 10.1158/1535-7163.MCT-18-0877
  %-inhibition at 1 µmol/L, FYN [isoform b]: 12%
[6]; kinase LYNb, 1 µmol/L single concentration, ref DOI: 10.1158/1535-7163.MCT-18-0877
  %-inhibition at 1 µmol/L, LYNb: 15%
[6]; kinase PKCβ2, 1 µmol/L single concentration, ref DOI: 10.1158/1535-7163.MCT-18-0877
  %-inhibition at 1 µmol/L, PKCβ2: 0.0492%
[6]; kinase SRM, 1 µmol/L single concentration, ref DOI: 10.1158/1535-7163.MCT-18-0877
  %-inhibition at 1 µmol/L, SRM: 41%
[7]; [19]
  %-inhibition CDK6/CycD3: -0.448%
[8]; [19]
  %-inhibition at 1 µmol/L, PIM1: 15%
[9]; [19]
  %-inhibition AMPKα2/β1/γ1: 6%
[10]; [19]
  %-inhibition at 1 µmol/L, TRKA: 62%
[11]; [19]
  %-inhibition, MSK2: 1.22%
[12]; [19]
  %-inhibition at 1 µmol/L, SYK: -9%
[13]; [19]
  %-inhibition at 1 µmol/L, GSK3β: 2.37%
[14]; [19]
  %-inhibition CaMK2δ: 37%
[15]; [19]
  %-inhibition at 1 µmol/L, PYK2: 47%
[16]; [19]
  %-inhibition at 1 µmol/L, PKR: 5.33%

## C[C@@H](Oc1cc(-c2cnn(C3CCNCC3)c2)cnc1N)c1c(Cl)ccc(F)c1Cl [crizotinib]
[1]; [20]
  %-inhibition at 1 µmol/L, FGFR3: 43%
[2]; [20]
  %-inhibition, p38α: -2.27%
[3]; [20]
  %-inhibition at 1 µmol/L, ROCK2: 4.25%
[4]; [20]
  %-inhibition at 1 µmol/L, PKACγ: -6.52%
[5]; [20]
  %-inhibition CaMK2γ: -10%
[6]
  %-inhibition at 1 µmol/L, LYNb: 34%
  %-inhibition at 1 µmol/L, PKCβ2: -1.6%
  %-inhibition at 1 µmol/L, SRM: 1.51%
[7]; [20]
  %-inhibition CDK6/CycD3: 0.0624%
[8]; [20]
  %-inhibition at 1 µmol/L, PIM1: -7%
[9]; [20]
  %-inhibition AMPKα2/β1/γ1: 27%
[10]; [20]
  %-inhibition at 1 µmol/L, TRKA: 103%
[11]; [20]
  %-inhibition, MSK2: -1.8%
[17]; [20]
  %-inhibition at 1 µmol/L, ITK: 63%
[13]; [20]
  %-inhibition at 1 µmol/L, GSK3β: -2.11%
[14]; [20]
  %-inhibition CaMK2δ: 4%
[16]; [20]
  %-inhibition at 1 µmol/L, PKR: 6%

## CC(C)(C)c1nc(-c2cccc(NS(=O)(=O)c3c(F)cccc3F)c2F)c(-c2ccnc(N)n2)s1 [dabrafenib]
[1]; [20]
  %-inhibition at 1 µmol/L, FGFR3: 4.27%
[3]; [20]
  %-inhibition at 1 µmol/L, ROCK2: 14%
[5]; [20]
  %-inhibition CaMK2γ: -5.47%
[6]; kinase LYNb, 1 µmol/L single concentration, ref DOI: 10.1371/journal.pone.0092146
  %-inhibition at 1 µmol/L, LYNb: 86%
[6]; kinase PKCβ2, 1 µmol/L single concentration, ref DOI: 10.1371/journal.pone.0092146
  %-inhibition at 1 µmol/L, PKCβ2: -3%
[6]; kinase SRM, 1 µmol/L single concentration, ref DOI: 10.1371/journal.pone.0092146
  %-inhibition at 1 µmol/L, SRM: 100%
[17]; [20]
  %-inhibition at 1 µmol/L, ITK: 49%
[12]; [20]
  %-inhibition at 1 µmol/L, SYK: 37%
[14]; [20]
  %-inhibition CaMK2δ: -0.23%
[15]; [20]
  %-inhibition at 1 µmol/L, PYK2: 56%

## CO[C@@H]1[C@H](N(C)C(=O)c2ccccc2)C[C@H]2O[C@]1(C)n1c3ccccc3c3c4c(c5c6ccccc6n2c5c31)C(=O)NC4 [midostaurin]
[2]; [19]
  %-inhibition, p38α: -1.38%
[3]; [19]
  %-inhibition at 1 µmol/L, ROCK2: 38%
[4]; [19]
  %-inhibition at 1 µmol/L, PKACγ: 81%
[7]; [19]
  %-inhibition CDK6/CycD3: 1.81%
[8]; [19]
  %-inhibition at 1 µmol/L, PIM1: 52%
[9]; [19]
  %-inhibition AMPKα2/β1/γ1: 90%
[10]; [19]
  %-inhibition at 1 µmol/L, TRKA: 100%
[11]; [19]
  %-inhibition, MSK2: 77%
[17]; [19]
  %-inhibition at 1 µmol/L, ITK: 73%
[12]; [19]
  %-inhibition at 1 µmol/L, SYK: 97%
[15]; [19]
  %-inhibition at 1 µmol/L, PYK2: 72%
[18]
  %-inhibition ALK: 87%
[16]; [19]
  %-inhibition at 1 µmol/L, PKR: 32%
